Results published in patent publication US10342766B2, “6-shogaol derivatives and activities thereof” (North Carolina Agricultural and Technical State University, priority 2017, dated 2019).
Entries after “also recorded” stand apart in the source; their conditions may differ.

Experiments:
[1] = tested on: heme oxygenase-1 (HO-1); experiment: Western blotting of HO-1 expression in CCD 841 CoN cells; format: cell-based, human
Description: Human normal colonic epithelial cells (CCD 841 CoN) were grown in Eagle's Minimum Essential Medium with 10% fetal bovine serum and 1% penicillin/streptomycin, and maintained at 37° C. in a 100% humidified atmosphere of 5% CO2 and 95% air. Fresh growth medium was added to the cells every two days until confluent. Cells were planted in 145×20 mm flat-bottomed tissue culture dishes and growth to 70-80% confluence and then treated with compound 27 for various doses and time points. At the end of incubation period, cell lysates were prepared in ice-cold Cell Lysis Buffer (Cell Signaling, Danvers, Mass., United States of America) with 1% protease inhibitor cocktail and 1% phenylmethylsulfonyl fluoride (Sigma, St. Louis, Mo., United States of America). Protein concentrations were measured using BCA Protein Assay Kit (Thermo Scientific, Rockford, Ill., United States of America). […] The bound complexes were detected with SuperSignal Chemiluminescent Substract (Thermo Scientific, Rockford, Ill., United States of America). The immunoblot bands were quantified by densitometry analysis, and the ratio to β-actin was calculated and presented.

[2] = tested on: human colon cancer cells HT-29; experiment: MTT growth inhibition, HT-29; format: cell-based; conditions: 24 hours
Description: Cell viability was determined by an MTT colorimetric assay. Briefly, human colon cancer cells HCT-116 or HT-29, were plated in 96-well microtiter plates with 3000 cells/well and allowed to attach for 24 hours at 37° C. and 5% CO2. The test compounds (in DMSO) were added to cell culture medium to desired final concentrations (final DMSO concentrations for control and treatments were 0.1%). After the cells were cultured for 24 hours, the medium was aspirated and cells were treated with 200 μL fresh medium containing 2.41 mmol/L MTT. After incubation for 3 hours at 37° C., the medium containing MTT was aspirated, 100 μL of DMSO was added to solubilize the formazan precipitate, and the plates were shaken gently for an hour at room temperature. Absorbance values were derived from the plate reading at 550 nm on a Biotek (Winooski, Vt., United States of America) microtiter plate reader. The reading reflected the number of viable cells and was expressed as a percentage of viable cells in the control. CCD-18Co cells were grown in EMEM. Both HCT-116 and HT-29 cells were cultured in McCoy's 5A medium. All of the above media were supplemented with 10% fetal bovine serum, 1% penicillin/streptomycin, and 1% glutamine, and the cells were kept in a 37° C. incubator with 95% humidity and 5% CO2.

[3] = Biotransformation in zebrafish embryos (cysteine conjugates, LC/MS); format: in vivo; conditions: 5 μM in incubation medium, 8 hpf to 24 hpf
Description: Fifty zebrafish embryos at the 8 hour-post-fertilization (hpf) stage were incubated at 28.5° C. in 0.3× Danieau's solution (19.3 mM NaCl, 0.23 mM KCl, 0.13 mM MgSO4, 0.2 mM Ca(NO3)2, 1.7 mM HEPES, pH 7.0) with or without 5 μM 18 and 25-27, respectively. At 24 hpf, embryos were dechorionated manually and the chorions were carefully removed one by one from the culture medium. The zebrafish embryos were harvested and kept at −80° C. till analyzed by LC/MS.
200 μL Sodium acetate buffer solution (pH 5.0) was added to 50 zebrafish embryos. Samples were homogenized for 90 s by an Omni Bead Ruptor Homogenizer (Kennesaw, Ga., United States of America). 10 μL 10% ascorbic acid and 300 μL sodium acetate buffer were added to the homogenates. The mixture was incubated in the presence of β-glucuronidase (250 U) and sulfatase (3 U) at 37° C. for 45 min, and then 600 μL MeOH with 1% acetic acid was added. The resulting mixture was vortexed for 30 s and then centrifuged at 17000 g for 10 min. The supernatant was removed and evaporated under a gentle stream of nitrogen. The residue was reconstituted in 150 μL 90% MeOH with 0.2% acetic acid (AA), and 10 μL was analyzed directly by LC/MS.
LC/MS analysis was carried out with a Thermo-Finnigan Spectra System, which consisted of an Accela high speed MS pump, an Accela refrigerated autosampler, and an LCQ Fleet ion trap mass detector (Thermo Electron, San Jose, Calif., United States of America) incorporated with an electrospray ionization (ESI) interface. A Gemini-NX C18 column (150 mm×4.6 mm i.d., 5 μm; Phenomenex, Torrance, Calif., United States of America) was used for separation at a flow rate of 0.3 mL/min. The column was eluted with 100% A (5% aqueous methanol with 0.2% formic acid) for 1 min, followed by linear increases in B (95% aqueous methanol with 0.2% formic acid) to 55% from 1 to 4 min, to 85% from 4 to 25 min, then to 100% B from 25 to 30 min, and then with 100% B from 30 to 35 min. The column was then re-equilibrated with 100% A for 5 min. The LC eluent was introduced into the ESI interface. The positive ion polarity mode was set for the ESI source with the voltage on the ESI interface maintained at approximately 4.6 kV. Nitrogen gas was used as the sheath gas and auxiliary gas. Optimized source parameters, including capillary temperature (260° C.), sheath gas flow rate (31 arbitrary units), auxiliary gas flow rate (16 units), tube lens (34 V), and capillary voltage 9 V, were tuned using authentic samples. The collision-induced dissociation (CID) was conducted with an isolation width 2 Da and normalized collision energy of 35 for MS^2. The mass range was measured from 100 to 800 m/z. Data acquisition was performed with Xcalibur version 2.0 (Thermo Electron, San Jose, Calif., United States of America).

IC50 [2]: 78.4 µM
SMILES: CCCCCCCC(=O)/C=C/c1ccc(O)c(O)c1 [Compound 27]
HO-1 expression, time dependence ([1]; 10 μM for 3, 6, 12 and 24 h, vs control (0 h)): significantly increased HO-1 expression; also recorded: increased HO-1 expression in a time-dependent manner | HO-1 protein expression, dose dependence ([1]; 5, 10 and 20 μM for 24 h, vs untreated control): significantly increased HO-1 protein expression; also recorded: increased HO-1 expression in a dose-dependent manner | Cysteine conjugates found in zebrafish embryos [3]: four cysteine conjugates 36, 36a, 37, and 37b were found
